Experiments:
[1] = target: Carbonic anhydrase 2 (Homo sapiens, UniProt P00918)
[2] = target: Carbonic anhydrase 9 (Homo sapiens, UniProt Q16790); experiment: Inhibition of human recombinant CA9 catalytic domain by stopped-flow CO2 hydration method
[3] = target: Carbonic anhydrase 1 (Homo sapiens, UniProt P00915); experiment: Inhibition of full length human CA1 cytosolic isoform by stopped-flow CO2 hydration method
Carbonic anhydrase 1, sequence (P00915 whole entry, canonical isoform): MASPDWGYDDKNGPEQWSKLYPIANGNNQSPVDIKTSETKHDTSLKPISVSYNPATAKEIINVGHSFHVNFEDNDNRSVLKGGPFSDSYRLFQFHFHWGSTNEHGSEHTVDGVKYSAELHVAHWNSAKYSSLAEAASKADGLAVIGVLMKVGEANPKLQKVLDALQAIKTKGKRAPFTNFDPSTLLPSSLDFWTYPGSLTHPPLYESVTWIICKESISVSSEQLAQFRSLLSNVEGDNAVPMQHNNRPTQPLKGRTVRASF

| Compound | Ki [1] | Ki [2] | Ki [3] |
| --- | --- | --- | --- |
| CC(=O)c1cc2ccc(=O)oc2cc1O | > 100 µM |  |  |
| CCC(=O)c1cc2ccc(=O)oc2cc1O | > 100 µM | 8.02 µM |  |
| CCC(=O)c1c(O)ccc2ccc(=O)oc12 | > 100 µM |  | > 100 µM |
| CCCOc1cc2oc(=O)ccc2cc1C(C)=O | > 100 µM | 7.58 µM | > 100 µM |
| CCCCOc1cc2oc(=O)ccc2cc1C(C)=O | > 100 µM | > 100 µM | > 100 µM |
| COc1ccc2ccc(=O)oc2c1C(C)=O | > 100 µM | 0.0783 µM | > 100 µM |
| CCCOc1ccc2ccc(=O)oc2c1C(C)=O | > 100 µM | 0.0567 µM | > 100 µM |
| CCCCOc1ccc2ccc(=O)oc2c1C(C)=O | > 100 µM |  | > 100 µM |
| CC(=O)c1cc2ccc(=O)oc2cc1OCc1ccccc1 |  | > 100 µM | > 100 µM |
| CC(=O)c1c(OCc2ccccc2)ccc2ccc(=O)oc12 |  | 0.0723 µM | > 100 µM |
| CC(=O)c1c(OCCC23CC4CC(CC(C4)C2)C3)ccc2ccc(=O)oc12 | > 100 µM | 0.0639 µM | > 100 µM |
| CC(=O)c1c(O)ccc2ccc(=O)oc12 | > 100 µM | 0.073 µM | > 100 µM |

More lines, now with the values ahead:

| Ki [1] | Ki [2] | Ki [3] | Compound |
| --- | --- | --- | --- |
| > 100 µM | 7.8 µM | > 100 µM | COc1cc2oc(=O)ccc2cc1C(C)=O |
|  | 7.4 µM | > 100 µM | CCOc1cc2oc(=O)ccc2cc1C(C)=O |
| > 100 µM | 0.0708 µM | > 100 µM | CCOc1ccc2ccc(=O)oc2c1C(C)=O |
| > 100 µM | 0.0378 µM | > 100 µM | CCC(=O)c1c(OC)ccc2ccc(=O)oc12 |
| > 100 µM | 0.0467 µM | > 100 µM | CCOc1ccc2ccc(=O)oc2c1C(=O)CC |
| > 100 µM |  | > 100 µM | CCCOc1ccc2ccc(=O)oc2c1C(=O)CC |
| > 100 µM | > 100 µM | > 100 µM | CC(=O)c1cc2ccc(=O)oc2cc1OCCC12CC3CC(CC(C3)C1)C2 |
